Measured values published in patent US10829778B2, “Plants having increased tolerance to herbicides” (BASF SE, priority 2013, dated 2020).

System: Rhodococcus HPPD (Seq ID 44)
Assay: HPPD activity assay, wildtype enzyme
Type: biochemical
Settings: Table 12, normalized to Arabidopsis HPPD; Rhodococcus (Seq ID 44)
Experimental: HPPD produces homogentisic acid and CO2 from 4-hydroxyphenylpyruvate (4-HPP) and O2. The activity assay for HPPD is based on the analysis of homogentisic acid by reversed phase HPLC.
The assay mixture can contain 150 mM potassium phosphate buffer pH 7.0, 50 mM L-ascorbic acid, 100 μM Catalase (Sigma-Aldrich), 1 μM FeSO4 and 0.2 units of purified HPPD enzyme in a total volume of 505 μl. 1 unit is defined as the amount of enzyme that is required to produce 1 nmol of HGA per minute at 20° C.
After a preincubation of 30 min the reaction is started by adding 4-HPP to a final concentration of 0.05 mM. The reaction is allowed to proceed for 45 min at room temperature. The reaction is stopped by the addition of 50 μl of 4.5 M phosphoric acid. The sample is filtered using a […] pore size PVDF filtration device.
5 μl of the cleared sample is analyzed on an UPLC HSS T3 column (particle size 1.8 μm, dimensions 2.1×50 mm; Waters) by isocratic elution using 90% 20 mM NaH2PO4 pH 2.2, 10% methanol (v/v).
HGA is detected electrochemically at 750 mV (mode: DC; polarity: positive) and quantified by integrating peak areas (Empower software; Waters).
Inhibitors are dissolved in DMSO (dimethylsulfoxide) to a concentration of 0.5 mM. From this stock solution serial five-fold dilutions are prepared in DMSO, which are used in the assay. The respective inhibitor solution accounts for 1% of the assay volume. Thus, final inhibitor concentrations range from […], respectively. Activities are normalized by setting the uninhibited enzyme activity to 100%. IC50 values are calculated using non-linear regression.
Using methods which are described in the above examples or well known in the art, purified, recombinant wildtype HPPD enzymes are characterized with respect to their kinetic properties and sensitivity towards HPPD inhibiting herbicides. Apparent michaelis constants (Km) and maximal reaction velocities (Vmax) are calculated by non-linear regression with the software GraphPad Prism 5 (GraphPad Software, La Jolla, USA) using a substrate inhibition model. Apparent kcat values are calculated from Vmax assuming 100% purity of the enzyme preparation. Weighted means (by standard error) of Km and IC50 values are calculated from at least three independent experiments. The Cheng-Prusoff equation for competitive inhibition (Cheng, Y. C.; Prusoff, W. H. Biochem Pharmacol 1973, 22, 3099-3108) is used to calculate dissociation constants (Ki).
Field performance of the HPPD enzyme, which is used as a herbicide tolerance trait may depend not only on its lack of sensitivity towards HPPD inhibiting herbicides but also on its activity. To assess the potential performance of a herbicide tolerance trait a tolerance index (TI) is calculated using the following formula: […]

## Cc1nonc1NC(=O)c1ccc(S(C)(=O)=O)c(S(C)(=O)=O)c1C [Inhibitor 1, 2-methyl-N-(4-methyl-1,2,5-oxadiazol-3-yl)-3,4-bis(methylsulfonyl)benzamide]
  Normalized tolerance index TI Inhibitor 1: 183.5
